Results: article PMC9683047, “Design, synthesis and biological evaluation of 4-aminoquinoline derivatives as receptor-interacting protein kinase 2 (RIPK2) inhibitors” (Journal of Enzyme Inhibition and Medicinal Chemistry, 2022)

Key:
[1] = target: T1, RIPK2 (Homo sapiens, UniProt O43353); assay: RIPK2 kinase inhibition assay (ADP-Glo); format: biochemical; details: mean ± SD from two separate experiments
T1 construct: purchased Promega
Experimental: RIPK2 kinase activity was analysed using the ADP-Glo™ Assay Kit (RIPK2 Kinase Enzyme System, Promega, USA). Reactions were performed according to the instructions. Specific signal was calculated by subtracting values in the wells without protein and inhibitor from the values in the test wells.

[2] = target: T1, RIPK2; assay: Lipophilic ligand efficiency (LipE); details: LipE = pIC50 − ClogP

T1 sequence (O43353 whole entry): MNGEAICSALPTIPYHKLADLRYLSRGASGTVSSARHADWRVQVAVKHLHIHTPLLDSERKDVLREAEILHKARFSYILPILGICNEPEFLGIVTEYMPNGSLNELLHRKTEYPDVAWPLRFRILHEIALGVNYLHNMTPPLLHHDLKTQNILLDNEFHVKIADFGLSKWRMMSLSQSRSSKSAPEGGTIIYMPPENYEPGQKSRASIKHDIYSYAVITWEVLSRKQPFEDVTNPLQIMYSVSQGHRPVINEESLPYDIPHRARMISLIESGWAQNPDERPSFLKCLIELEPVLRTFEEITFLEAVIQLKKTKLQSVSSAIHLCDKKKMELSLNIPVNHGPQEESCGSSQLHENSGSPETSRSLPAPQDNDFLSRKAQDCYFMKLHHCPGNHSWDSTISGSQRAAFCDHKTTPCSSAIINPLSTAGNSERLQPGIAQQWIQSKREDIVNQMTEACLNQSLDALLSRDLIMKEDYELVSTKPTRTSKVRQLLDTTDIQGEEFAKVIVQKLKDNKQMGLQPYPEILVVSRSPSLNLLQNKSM

Row | RIPK2 IC50 [1] | Structure (SMILES) | IC50 [1] [nM] | LipE [2]
1 |  | Brc1ccc2nccc(Nc3ccccc3)c2c1 [Compound 1, 6-Bromo-N-phenylquinolin-4-amine] | 243 ± 14.8 | 2.57
2 |  | COc1cccc(Nc2ccnc3ccc(Br)cc23)c1 [Compound 2, 6-Bromo-N-(3-methoxyphenyl)quinolin-4-amine] | 54.8 ± 3.4 | 3.10
3 | loss of the activity | CC(C)Oc1cccc(Nc2ccnc3ccc(Br)cc23)c1 [Compound 3, 6-Bromo-N-(3-isopropoxyphenyl)quinolin-4-amine] | > 1000 | 
4 |  | CC(=O)c1cccc(Nc2ccnc3ccc(Br)cc23)c1 [Compound 4, 1–(3-((6-Bromoquinolin-4-yl)amino)phenyl)ethan-1-one] | 92.5 ± 22.1 | 3.50
5 |  | Fc1cc(Nc2ccnc3ccc(Br)cc23)ccc1Cl [Compound 5, 6-Bromo-N-(4-chloro-3-fluorophenyl)quinolin-4-amine] | 31.4 ± 6.2 | 2.78
6 |  | COc1cc(Nc2ccnc3ccc(Br)cc23)cc(OC)c1OC [Compound 6, 6-Bromo-N-(3,4,5-trimethoxyphenyl)quinolin-4-amine] | 10.7 ± 0.1 | 3.63
7 |  | Brc1ccc2nccc(Nc3ccccn3)c2c1 [Compound 7, 6-Bromo-N-(pyridin-2-yl)quinolin-4-amine] | > 1000 | 
8 |  | Brc1ccc2nccc(Nc3cccnc3)c2c1 [Compound 8, 6-Bromo-N-(pyridin-3-yl)quinolin-4-amine] | 151 ± 30.1 | 3.68
9 |  | Brc1ccc2nccc(Nc3ccncc3)c2c1 [Compound 9, 6-Bromo-N-(pyridin-4-yl)quinolin-4-amine] | 421 ± 106 | 3.24
10 |  | Brc1ccc2nccc(Nc3ccc4scnc4c3)c2c1 [Compound 10, N-(6-bromoquinolin-4-yl)benzo[d]thiazol-5-amine] | 12.2 ± 2.5 | 3.97
11 |  | Brc1ccc2nccc(Nc3ccc4ncsc4c3)c2c1 [Compound 11, N-(6-bromoquinolin-4-yl)benzo[d]thiazol-6-amine] | 82.3 ± 12.2 | 3.21
12 |  | Brc1ccc2nccc(Nc3ccc4cn[nH]c4c3)c2c1 [Compound 12, 6-Bromo-N-(1H-indazol-6-yl)quinolin-4-amine] | 22.2 ± 5.2 | 3.49
13 |  | Brc1ccc2nccc(Nc3ccc4[nH]ccc4c3)c2c1 [Compound 13, 6-Bromo-N-(1H-indol-5-yl)quinolin-4-amine] | 118 ± 21.5 | 2.82
14 |  | c1ccc(-c2ccc3nccc(Nc4ccc5scnc5c4)c3c2)nc1 [Compound 16, N-(6-(pyridin-2-yl)quinolin-4-yl)benzo[d]thiazol-5-amine] | 3.6 ± 1.4 | 4.11
15 |  | c1ncc(-c2ccc3nccc(Nc4ccc5scnc5c4)c3c2)cn1 [Compound 17, N-(6-(pyrimidin-5-yl)quinolin-4-yl)benzo[d]thiazol-5-amine] | 1.5 ± 0.3 | 2.80
16 |  | c1ccc(-c2ccc3nccc(Nc4ccc5scnc5c4)c3c2)cc1 [Compound 18, N-(6-phenylquinolin-4-yl)benzo[d]thiazol-5-amine] | 24 ± 11.6 | 5.81
17 |  | Cn1cc(-c2ccc3nccc(Nc4ccc5scnc5c4)c3c2)cn1 [Compound 19, N-(6–(1-methyl-1H-pyrazol-4-yl)quinolin-4-yl)benzo[d]thiazol-5-amine] | 16.4 ± 1.6 | 3.08

Row | RIPK2 IC50 [1] | Structure (SMILES) | IC50 [1] [nM] | LipE [2]
18 |  | c1cc(Nc2ccc3scnc3c2)c2cc(-c3cn[nH]c3)ccc2n1 [Compound 20, N-(6-(1H-pyrazol-4-yl)quinolin-4-yl)benzo[d]thiazol-5-amine] | 8.2 ± 1.6 | 3.04
19 |  | Cc1cnn(C)c1-c1ccc2nccc(Nc3ccc4scnc4c3)c2c1 [Compound 22, N-(6–(1,4-dimethyl-1H-pyrazol-5-yl)quinolin-4-yl)benzo[d]thiazol-5-amine] | 19 ± 6.7 | 3.86
20 |  | Cc1nn(C)cc1-c1ccc2nccc(Nc3ccc4scnc4c3)c2c1 [Compound 23, N-(6–(1,3-dimethyl-1H-pyrazol-4-yl)quinolin-4-yl)benzo[d]thiazol-5-amine] | 9.5 ± 3.7 | 2.92
21 |  | Cc1cscc1-c1ccc2nccc(Nc3ccc4scnc4c3)c2c1 [Compound 24, N-(6–(4-methylthiophen-3-yl)quinolin-4-yl)benzo[d]thiazol-5-amine] | 19.6 ± 12 | 2.37
22 |  | c1cc(Nc2ccc3scnc3c2)c2cc(-c3ccc4[nH]ccc4c3)ccc2n1 [Compound 25, N-(6-(1H-indol-5-yl)quinolin-4-yl)benzo[d]thiazol-5-amine] | 11.1 ± 3.6 | 3.87
23 |  | c1cc(-c2ccc3nccc(Nc4ccc5scnc5c4)c3c2)c2cc[nH]c2c1 [Compound 26, N-(6-(1H-indol-4-yl)quinolin-4-yl)benzo[d]thiazol-5-amine] | 9.4 ± 1.1 | 5.00
24 |  | c1cc(-c2ccc3nccc(Nc4ccc5scnc5c4)c3c2)c2cn[nH]c2c1 [Compound 27, N-(6-(1H-indazol-4-yl)quinolin-4-yl)benzo[d]thiazol-5-amine] | 3.7 ± 0.4 | 
25 |  | c1cc(Nc2ccc3scnc3c2)c2cc(-c3ccnc4[nH]ccc34)ccc2n1 [Compound 28, N-(6-(1H-pyrrolo[2,3-b]pyridin-4-yl)quinolin-4-yl)benzo[d]thiazol-5-amine] | 7.3 ± 3.5 | 3.46
26 |  | c1ccc2c(-c3ccc4nccc(Nc5ccc6scnc6c5)c4c3)cncc2c1 [Compound 29, N-(6-(isoquinolin-4-yl)quinolin-4-yl)benzo[d]thiazol-5-amine] | 17.2 ± 2.3 | 3.81
27 |  | c1ccc2ncc(-c3ccc4nccc(Nc5ccc6scnc6c5)c4c3)cc2c1 [Compound 30, N-([3,6'-biquinolin]-4'-yl)benzo[d]thiazol-5-amine] | 41.7 ± 19 | 2.80
28 |  | COc1cc(Nc2ccnc3ccc(-c4ccncc4)cc23)cc(OC)c1OC [Compound 31, 6-(Pyridin-4-yl)-N-(3,4,5-trimethoxyphenyl)quinolin-4-amine] | 8.1 ± 3.9 | 3.87
29 |  | COc1cc(Nc2ccnc3ccc(-c4ccccn4)cc23)cc(OC)c1OC [Compound 33, 6-(Pyridin-2-yl)-N-(3,4,5-trimethoxyphenyl)quinolin-4-amine] | 12.4 ± 8.9 | 3.26
30 |  | COc1cc(Nc2ccnc3ccc(-c4cncnc4)cc23)cc(OC)c1OC [Compound 34, 6-(Pyrimidin-5-yl)-N-(3,4,5-trimethoxyphenyl)quinolin-4-amine] | 11 ± 1.7 | 4.58
31 |  | COc1cc(Nc2ccnc3ccc(-c4cccc5[nH]ncc45)cc23)cc(OC)c1OC [Compound 35, 6–(1 h-indazol-4-yl)-N-(3,4,5-trimethoxyphenyl)quinolin-4-amine] | 7.1 ± 4.7 | 3.24
32 |  | COc1cc(Nc2ccnc3ccc(-c4cn[nH]c4)cc23)cc(OC)c1OC [Compound 37, 6–(1 h-pyrazol-4-yl)-N-(3,4,5-trimethoxyphenyl)quinolin-4-amine] | 14.5 ± 5.6 | 4.22
33 |  | COc1cc(Nc2ccnc3ccc(-c4c[nH]nc4C)cc23)cc(OC)c1OC [Compound 38, 6–(3-Methyl-1H-pyrazol-4-yl)-N-(3,4,5-trimethoxyphenyl)quinolin-4-amine] | 19.2 ± 0.7 | 3.79
